Where two headings read alike, the source gives them in different places.
How the values were obtained:
[1] = Permeation through excised duodenal mucosa; assay type: in vitro ADME, rabbit
Excerpt: (§1) The results are shown in below Table 2.

[2] = Permeation through excised colonic mucosa; assay type: in vitro ADME, rabbit
Excerpt: as §1

[3] = Permeation through excised rectal mucosa; assay type: in vitro ADME, rabbit
Excerpt: as §1

[4] = assay type: in vitro ADME; settings: female, New Zealand White, rabbit
Excerpt: as §1

[5] = Test for intranasal stability of active ingredient in nasal mucosa extract; settings: 37° C.; for Residual Concentration: 200 μg/mL added
Procedure: The fresh nasal mucosa excised from a rabbit (body weight 3.0 kg, New Zealand White female rabbit) was mounted to the Valia-Chien permeation system maintained at a constant temperature of 37° C. Each of the donor and receptor half-cells was filled with each 3.5 mL of saline, maintained at the constant temperature for 4 hours while stirring with a magnetic star-head bar, and then both extracts from the half-cells were combined and used as nasal mucosa extracts.
Ondansetron hydrochloride (200 μg/mL) was added to the obtained nasal mucosa extract, and then maintained at the temperature of 37° C. for 4 hours while gently shaking in order to confirm the physiochemical or enzymatic stability of ondansetron hydrochloride in a nasal cavity.

[6] = Comparison of bioavailability after nasal, intravenous and oral administration; assay type: in vivo, Sprague-Dawley male rats; settings: rats, 2 mg/kg; for Cmax / Tmax / AUC(0-t): male, Sprague-Dawley, rat, in vivo; for AUC(0-t): read-out: AUC0-2hr
Procedure: Twenty four (24) white rats (body weight 250-300 g, Sprague-Dawley male rats) were classified into 3 groups, namely 6, 11 and 7 rats. After nasal, intravenous and oral administration to each group of rats, the bioavailability according to the different routes of administration was compared.
Ondansetron hydrochloride was dissolved in the composition obtained in Formulation Example for nasal administration, in 0.9% saline for intravenous administration, and in purified water for oral administration as vehicles, respectively. Each 2 mg/kg of the solutions was administered thereby. The blood samples were collected at the predetermined time intervals to analyze the concentration of ondansetron hydrochloride in the plasma. The bioavailibity parameters were calculated from the assay results.

[7] = inhaled or intranasal, nasal, in composition of Formulation Example

Cc1nccn1CC1CCc2c(c3ccccc3n2C)C1=O.Cl.O.O (stereo not shown) [ondansetron hydrochloride, 1,2,3,9-tetrahydro-9-methyl-3-[(2-methyl-1H-imidazol-1-yl)methyl]-4H-carbazol-4-one hydrochloride dihydrate]
Cumulative Amounts ([1]; 0.5 hr): 14.8 ± 3.5 μg/cm^2
Cumulative Amounts ([1]; 1.0 hr): 35.4 ± 8.2 μg/cm^2
Cumulative Amounts ([1]; 2.0 hr): 94.6 ± 23.9 μg/cm^2
Cumulative Amounts ([1]; 4.0 hr): 280.1 ± 43.2 μg/cm^2
Cumulative Amounts ([1]; 6.0 hr): 453.1 ± 36.3 μg/cm^2
Cumulative Amounts ([2]; 0.5 hr): 14.3 ± 2.2 μg/cm^2
Cumulative Amounts ([2]; 1.0 hr): 36.5 ± 7.8 μg/cm^2
Cumulative Amounts ([2]; 2.0 hr): 112.1 ± 14.6 μg/cm^2
Cumulative Amounts ([2]; 4.0 hr): 294.8 ± 14.7 μg/cm^2
Cumulative Amounts ([2]; 6.0 hr): 438.9 ± 27.2 μg/cm^2
Cumulative Amounts ([3]; 0.5 hr): 6.7 ± 0.1 μg/cm^2
Cumulative Amounts ([3]; 1.0 hr): 9.6 ± 0.9 μg/cm^2
Cumulative Amounts ([3]; 2.0 hr): 19.3 ± 5.8 μg/cm^2
Cumulative Amounts ([3]; 4.0 hr): 54.1 ± 6.7 μg/cm^2
Cumulative Amounts ([3]; 6.0 hr): 164.2 ± 9.2 μg/cm^2
Cumulative Amounts ([4]; 0.333 hr): 68.2 ± 4.7 μg/cm^2
permeation rate through nasal mucosa relative to colonic mucosa ([4]; 30 min): 7.5 times
permeation rate through nasal mucosa relative to duodenal mucosa ([4]; 30 min): 7.2 times
permeation rate through nasal mucosa relative to rectal mucosa ([4]; 30 min): 15.8 times
Cumulative Amounts ([4]; 0.5 hr): 106.8 ± 14.9 μg/cm^2
Cumulative Amounts ([4]; 1 hr): 180.5 ± 12.4 μg/cm^2
Cumulative Amounts ([4]; 1.5 hr): 261.5 ± 15.1 μg/cm^2
Cumulative Amounts ([4]; 2 hr): 289.3 ± 23.5 μg/cm^2
Cumulative Amounts ([4]; 3 hr): 414.6 ± 22.6 μg/cm^2
Cumulative Amounts ([4]; 4 hr): 559.4 ± 28.2 μg/cm^2
Residual Concentration ([5]; 0 hr): 198.6 ± 1.3 µg/mL
Residual Concentration ([5]; 1 hr): 199.0 ± 5.2 µg/mL
Residual Concentration ([5]; 2 hr): 203.5 ± 3.0 µg/mL
Residual Concentration ([5]; 3 hr): 196.9 ± 0.6 µg/mL
Residual Concentration ([5]; 4 hr): 197.9 ± 9.6 µg/mL
degradation in nasal mucosa extract ([5]; for 4 hours): not nearly degraded
Cmax [6, 7]: 49.4 ± 18.7 ng/mL
Tmax [6, 7]: 9.4 min
AUC(0-t) [6, 7]: 53.2 ± 9.5 ng·h/mL
AUC(0-t) ([6]; IV injection, in 0.9% saline): 51.1 ± 7.4 ng·h/mL
Cmax ([6]; oral, in purified water): 29.7 ± 10.6 ng/mL
Tmax ([6]; oral, in purified water): 11.8 min
AUC(0-t) ([6]; oral, in purified water): 24.9 ± 12.6 ng·h/mL
AUC0-2 hr in nasal administration higher than that in oral administration [6]: 2.1 times
Cmax in oral administration lower than that in nasal administration [6]: 1.7 times
